# Values joined by “and” are separate entries in the source; they are usually repeats but may differ in a detail not shown here. Identical values can stand only once. “Also recorded” adds a separate entry of the source. Like-named read-outs stand apart in the source and are kept apart here.
# Assays:
# [1] = system: filamentous actin (F-actin) in U-2OS wild type (wt) cells; experiment: Actin disruption assay in U-2OS cells (phalloidin staining); type: cell-based, human; settings: for effect on F-actin network, high dose 1 h: 5 x IC50 (L929), compared to control; for effect on actin and nuclei number, high dose 24 h: 5 x IC50, 24 h, differences between 1 and 24 h treatment
# Description: For this, the human osteosarcoma cell line U-2OS was treated using concentrations estimated based on previously determined IC50 values in murine L929 fibroblasts (Table 1), referred to as low dose (1 × IC50), and a 5-fold concentration, referred to as high dose (5 × IC50). Reorganization of the F-actin network was also investigated upon high dose treatment, followed by washout and a 1 h recovery phase in fresh medium. The impact on F-actin network organization was visualized using fluorescently labeled phalloidin (Figure 2). […] In addition, the effects on F-actin structures observed upon high dose treatment of all compounds were fully reversible after a 1 h recovery time (Figure 2m–q).
# The respective previously determined IC50 values in L929 were used to calculate the treatment concentration (1 × IC50: low dose; 5 × IC50: high dose).[37] DMSO was used as the vehicle control, corresponding to the highest compound volume used in the assay. Coverslips were coated with 25 μg/mL fibronectin (Roche, Mannheim, Germany) diluted 1:40 in phosphate buffered saline (PBS, pH 7.4, Life Technologies), and cells were seeded at a density of 20,000 cells and allowed to spread overnight. CO2-equilibrated culture medium was spiked with the desired compound and DMSO, respectively, in the above-mentioned concentration, and cells were treated with prepared medium for 1 h under cell culture conditions. For long-term experiments, the treatment phase was extended to 24 h. Cells were washed once and fixed afterward using 4% prewarmed paraformaldehyde (PFA) supplied in PBS for 20 min at 37 °C, followed by three additional washing steps with prewarmed PBS buffer. In addition, the reversibility of high dose effects on F-actin network organization was investigated by a washout procedure including three times prewarmed PBS wash steps prior to the addition of fresh medium and a recovery time of 1 h before fixation. In the case of 24 h treatments, the recovery phase was extended to 47 h. Cells were permeabilized with 0.1% Triton X-100 (Bio-Rad Laboratories, Hercules, CA, USA) in PBS buffer for 1 min at room temperature, washed three times with PBS, and stained for F-actin using ATTO-594-coupled phalloidin (ATTO-Tec, Siegen, Germany) diluted in PBS buffer (1:100) for 1 h at room temperature. Coverslips were washed thrice in PBS and mounted in ProLong Diamond antifade mountant (Invitrogen) containing DAPI to probe for nuclear DNA. Cells were recorded using an inverted microscope (Nikon Eclipse Ti2, Tokyo, Japan) equipped with a 60 times Nikon oil immersion objective (Plan Apofluar, 1.4 NA), a pE-4000 (CoolLED, Andover, UK) as light source, and a pco.edge back-illuminated sCMOS camera (Excelitas Technologies, Mississauga, ON, Canada). The microscopy system was operated by and images were recorded with NIS (Nikon) and processed with ImageJ (NIH, Bethesda, MD, USA).
# [2] = system: human potassium channel hKv1.5; design: method as in PMID 15800051; settings: cited from earlier work
# [3] = system: L929 (mouse fibroblast); experiment: Cytotoxicity assay (MTT), L929; type: cell-based; settings: Mus musculus, L929, 120 h, read-out: IC50 L929
# Description: (§1) The cytotoxicity assay was implemented in 96-well flat-bottom microtiter plates following a reported procedure.[21],[22],[33] The mammalian cell lines L929 (mouse fibroblast) and KB3.1 (human cervix carcinoma) were cultivated at 37 °C and 10% CO2 in Dulbecco’s modified minimum essential medium (DMEM, Life Technologies, Carlsbad, CA, USA) supplemented with 10% fetal bovine serum (FBS, Life Technologies). The microtiter plate was filled with 120 μL of suspended cells (50,000/mL), and 60 μL of a serial dilution of the test compound was added. After 5 days of incubation, growth inhibition (IC50) was determined by a colorimetric tetrazolium dye MTT assay.[34] The compounds were dissolved in MeOH (1 mg/mL), MeOH was used as negative control, and epothilone[35] (1 mg/mL) was used as positive control.
# [4] = target: T1, actin (G-actin purified from rabbit skeletal muscle) (Oryctolagus cuniculus, UniProt P68135); experiment: Pyrene actin polymerization assay; type: biochemical; settings: 2 μM compound, 2 μM actin (5% pyrene-actin), 550 nM actin seeds, after 30 min; control = 100%
# T1 construct: 1.5 kg of fresh rabbit skeletal muscle was minced with a meat grinder; from tissue; host or cells: rabbit skeletal muscle (acetone powder)
# Excerpt: To rule out that the reduced in cellulo efficacies of 3–5 could instead be explained by an altered membrane permeability of modified compounds or their differential effects on other intracellular factors, pyrene actin polymerization assays[23] were used to analyze potential effects on actin assembly in vitro under defined conditions. Globular actin (G-actin) was purified from rabbit skeletal muscle[24] and fluorescently labeled with pyrene (see description in the Supporting Information). G-actin (2 μM) supplemented with 5% pyrene-labeled actin was added to actin seeds and the respective compound (2 μM) in polymerization buffer to initiate the reaction. Actin polymerization was then assessed by reading out the increasing pyrene fluorescence signal over time (Figure 3).
# Acetone powder and G-actin were prepared as described previously.[24] Briefly, 1.5 kg of fresh rabbit skeletal muscle was minced with a meat grinder. Subsequently, the meat was stirred for 15 min in 2.5 L of high-salt buffer (0.5 M KCl, 0.1 M K2HPO4, 2 mM benzamidine, pH 6.4) and then pelleted at 4000g for 10 min. The supernatant was discarded, and the pellet was extracted once more with high-salt buffer and then washed twice with ice-cold ddH2O adjusting the slurry with 1 M Na2CO3 to pH 8.3 until a slight swelling of the pellet became visible. The pellet was then resuspended in ice-cold acetone, stirred for 15 min, and then centrifuged for 10 min at 4000g. The supernatant was discarded, and the pellet was washed once more with acetone before the pellet was broken up and dried in small pieces on aluminum foil under a fume hood overnight. The dried acetone powder was stored at −80 °C for further use.
# For purification of G-actin, 5 g of the acetone powder was extracted five times with 50 mL of G-buffer containing 2 mM Tris-HCl, pH 8.0, 0.2 mM CaCl2, 0.5 mM DTT, 0.2 mM Na2ATP, and 0.1 mg/mL NaN3. After each step, the solution was filtered through a fine gauze, yielding a total volume of 250 mL. Subsequently, the solution was centrifuged for 30 min at 20,000g at 4 °C. Actin in the supernatant was then polymerized by addition of 25 × polymerization buffer (250 mM Tris-HCl pH 8.0, 1250 mM KCl, 25 mM Na2ATP, 50 mM MgCl2 × 6 H2O) overnight. Subsequently, KCl was added to a final concentration of 750 mM, followed by centrifugation of the solution at 150,000g at 4 °C for 3 h. The F-actin pellet was then homogenized with 25 mL of G-actin buffer using a potter and then dialyzed against G-buffer. After a final centrifugation step at 150,000g at 4 °C for 3 h, G-actin was purified by size exclusion chromatography using a HiLoad 26/75 Superdex 200 column. Actin concentrations were determined by measuring the absorbance at 290 nm and using an extinction coefficient of 26,600 M^–1 cm^–1.
# For pyrene labeling, 10–20 mL of G-actin solution were dialyzed against labeling buffer following the procedure described by Doolittle et al.[38] […]
# Pyrene assays were conducted to assess the inhibitory properties of cytochalasins on actin polymerization under defined conditions in vitro using G-actin and actin seeds. The degree of labeling was determined; EC290 nm actin: 26600 1/M × cm; EC342 nm pyrene: 31091 1/M × cm. […]
# [5] = system: glucose carrier in human erythrocytes; settings: human erythrocytes ref 29, 30; cited from earlier work
# [6] = system: KB3.1 (human cervix carcinoma); experiment: Cytotoxicity assay (MTT), KB3.1; type: cell-based; settings: Homo sapiens, KB 3-1, 120 h, read-out: IC50 KB3.1
# Description: as §1
# [7] = 5 days of incubation, MTT, NC: no cytotoxic effect, or only weak inhibition of proliferation
Structure (SMILES),"effect on F-actin network, low dose ([1]; 1 x IC50 (L929), 1 h)","effect on F-actin network, high dose 1 h ([1]; 1 h)","effect on actin and nuclei number, high dose 24 h [1]",inhibitory activity on hKv1.5 [2],"IC50 [3, 7] [nM]",relative actin polymerization rate [4],inhibition of glucose transport [5],IC50 [3] [nM],IC50 [6] [nM]
"C=C1[C@@H](C)[C@H]2[C@H](Cc3ccccc3)NC(=O)[C@]23OC(=O)/C=C/[C@H](O)CCC[C@@H](C)C/C=C/[C@H]3[C@@H]1O [Compound 2, cytochalasin B]","partially led to compromised lamellipodia and a reduction of intermittent, cytoplasmic F-actin",complete collapse of the F-actin network; also recorded: actin disruption,+ multinucleation; also recorded: formation of multinucleated cells,inhibitory activity,1300,45%,inhibits glucose transport,,
"C=C1[C@@H](C)[C@H]2[C@H](Cc3ccccc3)N(C)C(=O)[C@]23OC(=O)/C=C/[C@H](O)CCC[C@@H](C)C/C=C/[C@H]3[C@@H]1O [Compound 4, N-methyl cytochalasin B]",,only slight; also recorded: moderate effects,"caused multinucleation, but left the actin network largely unchanged",,> 10000,83% and 84–86% and 84%,,,
"C/C(=C\c1csc(C)n1)[C@@H]1C[C@@H]2O[C@]2(C)CCC[C@H](C)[C@H](O)[C@@H](C)C(=O)C(C)(C)[C@@H](O)CC(=O)O1 [Epothilone B, reference compound]",,,,,,,,0.58,0.095

# Source: publication PMC11519904, “Comprehensive Cell Biological Investigation of Cytochalasin B Derivatives with Distinct Activities on the Actin Network” (Journal of Natural Products, 2024)
